In US20220241259A1, “COMPOSITIONS AND METHODS USING TRIGONELLINE AND VITAMINS FOR PREVENTING OR TREATING CONDITIONS OR DISORDERS IN SKELETAL MUSCLE” (SOCIETE DES PRODUITS NESTLE S.A., priority 2019, published 2022):

Columns and labels:
[1] = test system: Human Skeletal Muscle Myotubes (HSMM); conditions: 6 h
Procedure: Human primary myoblasts from two different donors were seeded in 6 well plates at a density of 200′000 cells per well in skeletal muscle growth medium (SKM-M, AMSbio). After one day, the differentiation was induced by a medium change for 4 days using differentiation culture medium (Gibco No. 31330-028). Cells were treated with isotopically labelled trigonelline (^13C carbonyl; 3^2H on methyl) for 6 h.
Cell extracts were separated on a Vanquish UHPLC+ focused LC system (Thermo Scientific) with a hydrophilic liquid chromatography (HILIC) iHILIC-Fusion(P) column (Hilicon) carrying the dimensions 150×2.1 mm, 5 μm and a guard column (iHILIC-fusion(P), Hilicon) in front. The separation of metabolites was achieved by applying a linear solvent gradient in normal phase at 0.25 mL/min flow rate and 35° C. of temperature. As mobile phase, solvent A was water with 10 mM ammonium acetate and 0.04% (v/v) ammonium hydroxide, pH ˜9.3, and solvent B was acetonitrile.
The eluting metabolites were analyzed with an Orbitrap Fusion Lumos mass spectrometer (Thermo Scientific) with a heated electrospray ionization (H-ESI) source in positive and negative mode at a resolution of 60,000 at m/z of 200. Instrument control and data analysis were conducted using Xcalibur (Thermo Scientific).

[2] = test system: RW1596 (myo-3p::GFP) worms; conditions: 1 mM trigonelline chloride, 11 day old worms vs age matched control
Procedure: RW1596 (myo-3p::GFP) worms were collected at Day 1 (young adults) and at Day 11 (aged animals) for muscle integrity assessment. Worms were immobilized with tetramisole and analyzed by confocal microscopy, to assess the muscle fibers morphology shown by GFP fluorescence imaging. Trigonelline treatment with 1 mM trigonelline chloride and experimental measurements were started at Day 1 of wild type N2 worm adulthood, in a regimen of chronic exposure till experiments termination.

wild type N2 worms = conditions: 1 mM trigonelline chloride, day 8 old worms (FIG. 8)
Procedure: Absolute quantification of the mtDNA copy number in wild type N2 worms was performed by real-time PCR. Relative values for nduo-1, and act-1 were compared within each sample to generate a ratio representing the relative level of mitochondrial DNA per nuclear genome. The average of at least two technical repeats was used for each biological data point. Each experiment was performed on at least ten independent biological samples (individual worms). Trigonelline treatment with 1 mM trigonelline chloride and experimental measurements were started at Day 1 of wild type N2 worm adulthood, in a regimen of chronic exposure till experiments termination.

C. elegans [3] = conditions: 1 mM, chronic exposure from Day 1 adulthood (FIG. 7A)
Procedure: Worm lifespan tests were performed using about 100 animals per condition and scored manually every other day. Trigonelline treatment and experimental measurements were started at Day 1 of wild type N2 worm adulthood, in a regimen of chronic exposure till experiments termination.

C. elegans [4] = conditions: 1 mM
Procedure: C. elegans mobility test was performed using the Movement Tracker software (Mouchiroud, L. et al. Curr Protoc Neurosci 77, 8.37.1-8.37.21 (2016)). The experiments were repeated at least twice. Trigonelline treatment and experimental measurements were started at Day 1 of wild type N2 worm adulthood, in a regimen of chronic exposure till experiments termination.

C. elegans [5] = conditions: 1 mM, day 8 and day 11 old worms (FIG. 7D)
From the text: 45 to 60 worms per condition were manually scored for mobility after poking. Worms that were unable to respond to any repeated stimulation were scored as dead. […] Trigonelline treatment and experimental measurements were started at Day 1 of wild type N2 worm adulthood, in a regimen of chronic exposure til experiments termination.

[6] = test system: Human Skeletal Muscle Myotubes (HSMM); assay: Colorimetric NAD+ quantification in differentiated human primary myoblasts; type: cell-based; conditions: 16 h, different doses, compared to the control (FIG. 4)
Procedure: After one day, the differentiation is induced by a medium change for 4 days. Cells were treated with synthetic trigonelline monohydrate (FIG. 4A) or with Fenugreek seed extract enriched in trigonelline containing 40.45% trigonelline (FIG. 4B) for 16 h at difference doses. NAD+ was measured using colorimetric NAD+ quantification assay (Biovision NAD+/NADH Quantitation Colorimetric Kit #k337-100).

C57BL/6JRj male mice = assay: Liver NAD+ in mice after oral gavage; type: in vivo; conditions: equimolar of 300 mg/kg trigonelline, 120 minutes, compared to the control (FIG. 5)
Procedure: 10 weeks C57BL/6JRj male mice received trigonelline (sigma #T5509) or fenugreek seed extract enriched in trigonelline (40.45% trigonelline) by oral gavage (equimolar of 300 mg/kg trigonelline, n=8/group). After 120 minutes treatment, the liver was harvested and flash frozen in liquid nitrogen. NAD+ was measured in liver using an enzymatic method adapted from Dall, M., et al., Mol Cell Endocrinol, 2018. 473: p. 245-256.

In the case of `C[n+]1cccc(C(=O)[O-])c1` [trigonelline, 1-methylpyridin-1-ium-3-carboxylate], the “NAD+ relative concentration” value ([1]; 500 μm, HSMM from 2 donors, LC-MS, relative to control (FIG. 2A)) is reported as “enhancement of NAD+”, the “myofibrillar structure (GFP-tagged myosin)” value [2] is reported as “improved more organized myofibrillar structure” and the “mitochondrial (nduo-1) relative to nuclear (act-1) DNA ratio” value (wild type N2 worms) is reported as “higher than in the control group”.

With `C[n+]1cccc(C(=O)O)c1` [trigonelline chloride] the lifespan increase (C. elegans [3]) was 21%, the “distance travelled during spontaneous mobility assay” value (C. elegans [4]; advanced aging phase, compared to control (FIG. 7C)) was “significantly increased” and the “mean speed during spontaneous mobility assay” value (C. elegans [4]; from day 1 adulthood, compared to control (FIG. 7B)) was “increased the mean speed”. The “stimulated mobility score (percentage of worms responsive to a physical stimulus)” value (C. elegans [5]) was “more responsive to a physical stimulus than the control”.

In the case of `[2H]C([2H])([2H])[n+]1cccc([13C](=O)[O-])c1` [labelled trigonelline], the “relative abundance of labelled NAD+ (M+ 1)” value ([1]; labelled trigonelline 500 μm, vs naturally occurring NAD+ control (FIG. 2B)) is reported as “increase in relative abundance of labelled NAD+ (M+ 1)”.

With `C[n+]1cccc(C(=O)O)c1.[OH-]` [chemically synthesized trigonelline] the “NAD+ content” value [6] was “significant increase” and the “NAD+ content in the liver” value (C57BL/6JRj male mice) was “significant increase”.
